Source: ChEMBL document CHEMBL1201862, “PubChem BioAssay data set” (2004)
Activity calls are given as the source filed them.

Experiments:
Assay type in all cases: functional
[1] = molecular target: T1, Short transient receptor potential channel 4 (Mus musculus, UniProt Q9QUQ5); assay: calcium entry via TRPC4 opening agents – cell-based, HEK293 TRPC4/mu-opioid, Fluo-4 calcium, dose response (AID 434937)
T1 sequence (Q9QUQ5 whole entry): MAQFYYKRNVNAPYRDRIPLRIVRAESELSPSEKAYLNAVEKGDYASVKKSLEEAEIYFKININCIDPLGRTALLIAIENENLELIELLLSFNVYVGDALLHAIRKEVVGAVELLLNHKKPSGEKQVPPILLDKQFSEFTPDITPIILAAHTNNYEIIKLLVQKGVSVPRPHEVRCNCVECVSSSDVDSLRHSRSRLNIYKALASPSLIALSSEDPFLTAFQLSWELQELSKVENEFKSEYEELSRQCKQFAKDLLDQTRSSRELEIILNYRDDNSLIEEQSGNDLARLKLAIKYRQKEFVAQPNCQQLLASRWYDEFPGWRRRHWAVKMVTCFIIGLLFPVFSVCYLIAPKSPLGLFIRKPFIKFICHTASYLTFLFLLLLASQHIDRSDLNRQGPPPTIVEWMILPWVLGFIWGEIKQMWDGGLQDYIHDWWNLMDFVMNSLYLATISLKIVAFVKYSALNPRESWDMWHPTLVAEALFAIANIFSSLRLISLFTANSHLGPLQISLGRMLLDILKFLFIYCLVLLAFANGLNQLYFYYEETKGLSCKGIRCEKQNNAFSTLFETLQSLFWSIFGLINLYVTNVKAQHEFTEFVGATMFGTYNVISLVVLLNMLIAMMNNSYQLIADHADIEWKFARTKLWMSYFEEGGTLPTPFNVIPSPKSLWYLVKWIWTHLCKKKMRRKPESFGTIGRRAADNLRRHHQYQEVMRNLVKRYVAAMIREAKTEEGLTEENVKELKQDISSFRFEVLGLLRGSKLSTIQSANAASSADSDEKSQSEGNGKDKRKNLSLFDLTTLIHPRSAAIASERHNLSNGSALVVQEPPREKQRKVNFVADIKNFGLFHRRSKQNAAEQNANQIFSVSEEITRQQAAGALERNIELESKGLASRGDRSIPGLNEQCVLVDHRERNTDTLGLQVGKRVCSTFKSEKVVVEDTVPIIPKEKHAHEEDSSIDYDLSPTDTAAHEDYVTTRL

[2] = molecular target: Delta-type opioid receptor (Homo sapiens, UniProt P41143); assay: Counterscreen for agonists of heterodimerization of the mu 1 (OPRM1) and delta 1 (OPRD1) opioid receptors: Luminescence-based cell-based high throughput dose response assay to identify agonists of OPRD1 homodimerization. [Related pubchem assays (depositor defined):AID504326, AID504355, AID504692, AID504904, AID504905]
Mu-type opioid receptor = Mu-type opioid receptor (Homo sapiens, UniProt P35372); assay: Counterscreen for agonists of heterodimerization of the mu 1 (OPRM1) and delta 1 (OPRD1) opioid receptors: Luminescence-based cell-based high throughput dose response assay to identify agonists of OPRM1 homodimerization.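 Note: U2OS cells expressing OPRM1 and beta-arrestin as split beta-galactosidase partners.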
[3] = molecular target: 5-hydroxytryptamine receptor 5A (Homo sapiens, UniProt P47898); assay: Counterscreen for agonists of OPRM1-OPRD1 heterodimerization: luminescence-based cell-based high throughput dose response assay to identify agonists of 5-hydroxytryptamine (serotonin) 5A receptor (HTR5A). [Related pubchem assays (depositor defined):AID504326, AID504355, AID504692, AID504904, AID504905]
[4] = molecular target: T2, Corticotropin-releasing factor receptor 2/Corticotropin-releasing factor-binding protein (Homo sapiens, UniProt P24387+Q13324); assay: Dose Response confirmation of uHTS hits for small molecule antagonists of the CRF-binding protein and CRF-R2 receptor complex.; conditions: read-out: IC50_Mean
T2 sequence (Q13324 whole entry): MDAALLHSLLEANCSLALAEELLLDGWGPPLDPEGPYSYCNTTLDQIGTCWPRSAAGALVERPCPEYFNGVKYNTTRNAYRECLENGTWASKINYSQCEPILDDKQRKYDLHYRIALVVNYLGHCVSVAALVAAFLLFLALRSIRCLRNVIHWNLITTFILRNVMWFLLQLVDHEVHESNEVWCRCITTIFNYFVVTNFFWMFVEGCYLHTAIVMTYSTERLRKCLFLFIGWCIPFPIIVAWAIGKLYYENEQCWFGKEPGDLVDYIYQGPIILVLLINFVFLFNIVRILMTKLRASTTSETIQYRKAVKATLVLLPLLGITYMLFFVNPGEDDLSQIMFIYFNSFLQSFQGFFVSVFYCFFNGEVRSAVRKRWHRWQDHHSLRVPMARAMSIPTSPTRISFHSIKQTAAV
T2 sequence (P24387 whole entry): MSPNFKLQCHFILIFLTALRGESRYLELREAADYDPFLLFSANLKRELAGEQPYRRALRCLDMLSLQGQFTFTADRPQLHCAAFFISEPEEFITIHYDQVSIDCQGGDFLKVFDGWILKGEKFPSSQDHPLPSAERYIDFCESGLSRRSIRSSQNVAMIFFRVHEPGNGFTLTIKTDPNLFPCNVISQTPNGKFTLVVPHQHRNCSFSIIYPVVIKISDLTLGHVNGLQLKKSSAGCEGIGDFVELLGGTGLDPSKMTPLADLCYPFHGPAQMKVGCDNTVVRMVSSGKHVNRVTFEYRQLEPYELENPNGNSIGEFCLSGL

[5] = molecular target: T2, Corticotropin-releasing factor receptor 2/Corticotropin-releasing factor-binding protein; assay: activators of CRF receptor 2 with binding protein – uHTS hits, confirmation (AID 602473); conditions: read-out: EC50_Mean

5-hydroxytryptamine receptor 5A, sequence (P47898 whole entry): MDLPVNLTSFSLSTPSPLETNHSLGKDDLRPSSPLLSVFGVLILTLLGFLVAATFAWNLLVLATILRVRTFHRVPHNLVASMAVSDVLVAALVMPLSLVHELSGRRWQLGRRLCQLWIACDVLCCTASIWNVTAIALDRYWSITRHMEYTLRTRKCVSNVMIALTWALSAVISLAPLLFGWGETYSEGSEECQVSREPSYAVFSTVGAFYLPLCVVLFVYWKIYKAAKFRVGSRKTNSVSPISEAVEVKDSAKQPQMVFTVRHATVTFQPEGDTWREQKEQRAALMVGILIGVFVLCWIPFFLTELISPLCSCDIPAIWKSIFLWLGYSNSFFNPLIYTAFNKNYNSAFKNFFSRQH
Delta-type opioid receptor, sequence (P41143 whole entry): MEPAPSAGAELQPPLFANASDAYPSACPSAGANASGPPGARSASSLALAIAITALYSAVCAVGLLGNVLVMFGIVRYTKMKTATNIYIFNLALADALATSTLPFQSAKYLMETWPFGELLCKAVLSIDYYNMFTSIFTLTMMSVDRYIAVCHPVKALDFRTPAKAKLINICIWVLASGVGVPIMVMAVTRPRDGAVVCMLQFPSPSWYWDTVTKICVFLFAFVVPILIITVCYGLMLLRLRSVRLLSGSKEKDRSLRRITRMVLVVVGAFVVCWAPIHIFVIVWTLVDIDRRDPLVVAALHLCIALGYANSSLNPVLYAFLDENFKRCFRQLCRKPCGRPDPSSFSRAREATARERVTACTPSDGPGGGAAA
Mu-type opioid receptor, sequence (P35372 whole entry): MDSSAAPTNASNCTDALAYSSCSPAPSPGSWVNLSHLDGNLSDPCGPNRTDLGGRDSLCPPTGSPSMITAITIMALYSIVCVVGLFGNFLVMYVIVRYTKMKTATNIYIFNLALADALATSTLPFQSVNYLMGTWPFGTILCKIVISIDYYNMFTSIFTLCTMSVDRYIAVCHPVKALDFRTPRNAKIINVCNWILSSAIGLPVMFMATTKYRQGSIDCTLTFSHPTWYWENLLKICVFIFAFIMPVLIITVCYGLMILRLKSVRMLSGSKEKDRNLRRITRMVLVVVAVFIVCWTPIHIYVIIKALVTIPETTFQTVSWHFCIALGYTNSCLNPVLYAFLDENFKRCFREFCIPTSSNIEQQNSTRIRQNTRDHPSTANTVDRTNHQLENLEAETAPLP

Question: What does the source list for COc1ccc(-c2nn(-c3ccccc3C)cc2CNCc2cccnc2)cc1F?
Answer: EC50 [1]: 3.76 µM (active); EC50 [2]: > 92.5 µM (inactive); EC50 (Mu-type opioid receptor): > 92.5 µM (inactive); EC50 [3]: > 92.5 µM (inactive); IC50 [4]: > 47.1 µM (inactive); EC50 [5]: > 53 µM (inactive)
